# According to patent publication US8367873B2, “Phenyl-substituted bicyclooctane-1,3-dione derivatives” (Bayer Cropscience AG, priority 2008, dated 2013):
# Key:
# Format in all cases: in vivo
# [1] = system: monocotylidonous and dicotylidonous weed and crop plants; assay: Herbicidal post-emergence action (other test plants); settings: post-emergence method; for herbicidal effect against AVEFA (Avena fatua): 80 g/ha
# Method in brief: (§1)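 Percent herbicidal effect (0% like control, 100% plants dead) was rated by eye roughly three weeks post-treatment. Treatment was a post-emergence spray of wettable-powder formulations at different doses, 600 l/ha water with 0.2% wetter, onto one-leaf-stage weeds and crops grown in greenhouse pots.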
# Setaria viridis [2] = assay: Herbicidal pre-emergence action; settings: pre-emergence method, 80 g/ha, greenhouse, visual assessment vs untreated controls
# Method in brief: (§2)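 Visual percent damage score (100% = dead plants, 0% = as untreated control) taken three weeks after pre-emergence treatment. Compounds were wettable powders sprayed onto covering soil over seeds in sandy loam, 600 l/ha water with 0.2% wetting agent, several application amounts; pots kept in greenhouse.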
# Alopecurus myosuroides [3] = assay: Herbicidal pre-emergence action; settings: pre-emergence method, 80 g/ha, greenhouse, visual assessment vs untreated controls
# Method in brief: as §2
# Lolium multiflorum [4] = assay: Herbicidal pre-emergence action; settings: pre-emergence method, 80 g/ha, greenhouse, visual assessment vs untreated controls
# Method in brief: as §2
# Echinocloa crus-galli [5] = assay: Herbicidal pre-emergence action; settings: pre-emergence method, 80 g/ha, greenhouse, visual assessment vs untreated controls
# Method in brief: as §2
# [6] = system: monocotylidonous and dicotylidonous weed and crop plants; assay: Herbicidal pre-emergence action (other test plants); settings: pre-emergence method, 80 g/ha, greenhouse, visual assessment vs untreated controls
# Method in brief: as §2
# Setaria viridis [7] = assay: Herbicidal post-emergence action; settings: post-emergence method; for herbicidal effect against SETVI (Setaria viridis): 80 g/ha
# Method in brief: as §1
# Alopecurus myosuroides [8] = assay: Herbicidal post-emergence action; settings: post-emergence method; for herbicidal effect against ALOMY (Alopecurus myosuroides): 80 g/ha
# Method in brief: as §1
# Lolium multiflorum [9] = assay: Herbicidal post-emergence action; settings: post-emergence method; for herbicidal effect against LOLMU (Lolium multiflorum): 80 g/ha
# Method in brief: as §1
# Echinocloa crus-galli [10] = assay: Herbicidal post-emergence action; settings: post-emergence method; for herbicidal effect against ECHCG (Echinochloa crus-galli): 80 g/ha
# Method in brief: as §1
Compound,herbicidal effect against AVEFA (Avena fatua) [1] [%],herbicidal effect SETVI (Setaria viridis [2]) [%],herbicidal effect ALOMY (Alopecurus myosuroides [3]) [%],herbicidal effect LOLMU (Lolium multiflorum [4]) [%],herbicidal effect ECHCG (Echinocloa crus-galli [5]) [%],herbicidal effect AVEFA [6] [%],herbicidal effect against SETVI (Setaria viridis) (Setaria viridis [7]) [%],herbicidal effect against ALOMY (Alopecurus myosuroides) (Alopecurus myosuroides [8]) [%],herbicidal effect against LOLMU (Lolium multiflorum) (Lolium multiflorum [9]) [%],herbicidal effect against ECHCG (Echinochloa crus-galli) (Echinocloa crus-galli [10]) [%],"pest or weed control at 80 g/ha ([1]; 504 h, Avena fatua, read-out: herbicidal effect against AVEFA (Avena fatua)) [%]","pest or weed control at 80 g/ha (Setaria viridis [7]; Setaria viridis, 504 h, read-out: herbicidal effect against SETVI (Setaria viridis)) [%]","pest or weed control at 80 g/ha (Alopecurus myosuroides [8]; Alopecurus myosuroides, 504 h, read-out: herbicidal effect against ALOMY (Alopecurus myosuroides)) [%]","pest or weed control at 80 g/ha (Lolium multiflorum [9]; Lolium multiflorum, 504 h, read-out: herbicidal effect against LOLMU (Lolium multiflorum)) [%]","pest or weed control at 80 g/ha (Echinocloa crus-galli [10]; Echinochloa crus-galli, 504 h, read-out: herbicidal effect against ECHCG (Echinochloa crus-galli)) [%]"
CCc1cc(C)cc(C)c1C1=C(OC(=O)C(C)C)C2CC3(CC2C1=O)OCC=CCO3 (stereo not shown) [I-b-76],90,70,100,100,100,60,100,90,100,100,–,–,–,–,–
CCc1cc(C)cc(C)c1C1=C(OC(=O)C(C)(C)C)C2CC3(CC2C1=O)OCCCCO3 (stereo not shown) [I-b-78],70,60,100,100,100,60,70,100,100,100,–,–,–,–,–
CCc1cc(C)cc(C)c1C1=C(OC(=O)C(C)C)C2CC3(CC2C1=O)OCCO3 (stereo not shown) [I-b-79],100,80,70,100,100,70,100,90,100,100,–,–,–,–,–
CCc1cc(C)cc(CC)c1C1=C(OC(=O)OC(C)C)C2CC3(COC(C)(C)O3)CC2C1=O (stereo not shown) [I-c-2],40,60,90,100,40,50,40,90,100,40,–,–,–,–,–
"C=C1CC2C(=O)C(c3c(CC)cc(C)cc3CC)=C(OC(=O)OCC)C2C1 (stereo not shown) [I-c-5, 2-(2,6-diethyl-4-methylphenyl)-5-methylidene-3-oxo-3,3a,4,5,6,6a-hexahydropentalen-1-yl ethyl carbonate]",–,80,80,80,90,80,–,–,–,–,30,90,20,90,100
CCOC(=O)OC1=C(c2c(CC)cc(C)cc2CC)C(=O)C2CC3(CC12)OC(C)CC(C)O3 (stereo not shown) [I-c-13],80,60,90,80,60,50,90,70,100,100,–,–,–,–,–
CCOC(=O)OC1=C(c2c(CC)cc(C)cc2CC)C(=O)C2CC3(CC12)OC(C)(C)C(C)(C)O3 (stereo not shown) [I-c-18],0,10,90,100,100,0,0,60,90,80,–,–,–,–,–
